Measurements reported in patent US11634488B2, “Treatment of B cell malignancies using afucosylated pro-apoptotic anti-CD19 antibodies in combination with anti CD20 antibodies or chemotherapeutics” (INTERNATIONAL—DRUG—DEVELOPMENT—BIOTECH, priority 2017, dated 2023).

Tested on: Human follicular cell line RL
Experiment: CDX model for FL: RL cells subcutaneously in SCID mice
Assay type: in vivo
Conditions: RL xenograft in SCID mice
Protocol: Human follicular cell line RL was subcutaneously injected in SCID mice, with a concentration of 5.10^6 cells per injection (200 μL). Mice were randomized when the tumors reached a mean volume of about 100 mm^3 for the 9 groups (total 45 mice). […] The endpoint was defined by animal ethics as a tumor diameter of >18 mm, significant weight loss or alteration of animal well-being. In order to assess the effectiveness of the compounds on tumorigenesis, tumor volume was measured two times a week. The sizes of the primary tumors were measured using calipers and the tumor volume (TV) was extrapolated to a sphere using the formula TV=4/3 […]×r^3, by calculating the mean radius from the two measurements. The median and standard deviation were also calculated for each group. Median is preferred to mean in order to exclude the extreme values. MAb treatment was administered by intraperitoneal injection twice a week during three weeks at 30, 10 or 1 mg/kg doses. The product was prepared in accordance with the sponsor's guidelines, i.e. diluted in PBS. Mice were sacrificed when the tumors reached a maximum volume of 1600 mm^3. The endpoints were defined by […] as a tumor diameter of >18 mm or weight loss of >10% of body weight, or when the tumors are dangerous for mice (necrosis). Statistical analysis was performed with GraphPad Prism software. GraphPad Prism combined scientific graphing, comprehensive curve fitting, understandable statistics, and data organization. The t-test (two-tailed test) was performed on the tumor volume values (mm^3) measured on the day of sacrifice.

[1] = Day 55, 1 mg/kg each MAb, percentage of mice

rituximab
mice in complete remission (1 mg/kg, day 45): 33%
Complete Remission [1]: 33
Tumor progression [1]: 67
